How the values were obtained:
[1] = molecular target: OCT2 (Homo sapiens, UniProt O15244); assay: Transporter substrate, OCT2; type: in vitro ADME; settings: role: substrate
Experimental: (§1) Additionally, compound 760 was tested for its capability to act as a transporter substrate for various transporters, and was not found to be a transporter substrate for any of the tested transporters.

[2] = tested on: CHO-K1 cells; assay: In vitro micronucleus; type: cell-based
[3] = molecular target: 5-HT1A (Homo sapiens, UniProt P08908); assay: Functional screening panel, 5-HT1A; type: biochemical; settings: antagonist; read-out: IC/EC50 5-HT1A-antagonist
Sequence of 5-HT1A (P08908 whole entry, species assumed): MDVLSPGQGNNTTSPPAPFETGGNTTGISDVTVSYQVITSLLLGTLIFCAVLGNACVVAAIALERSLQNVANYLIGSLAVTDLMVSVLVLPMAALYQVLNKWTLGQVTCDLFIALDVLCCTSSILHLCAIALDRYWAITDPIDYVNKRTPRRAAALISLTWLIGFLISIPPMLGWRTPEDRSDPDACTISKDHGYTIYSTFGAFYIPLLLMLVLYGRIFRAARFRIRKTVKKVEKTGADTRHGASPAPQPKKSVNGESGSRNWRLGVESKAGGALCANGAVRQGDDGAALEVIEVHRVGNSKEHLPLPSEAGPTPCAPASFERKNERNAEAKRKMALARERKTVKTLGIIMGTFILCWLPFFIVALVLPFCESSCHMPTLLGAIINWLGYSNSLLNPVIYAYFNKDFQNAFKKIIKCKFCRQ
Experimental: (§2) A broad panel of 78 recombinant targets was tested for pharmacologic activity in vitro through a variety of functional assays (Eurofins DiscoverX, USA), as part of the National Institute of Neurological Disorders and Stroke (NINDS) Preclinical Screening Platform for Pain (PSPP) program. The biological targets for the in vitro profiling have been selected based on avoiding opioid receptor stimulation and targets known to be associated with adverse events or targeted by drugs of abuse. […] For each test, a reference compound was evaluated at the target of interest as a positive control.

[4] = molecular target: OAT1 (Homo sapiens, UniProt Q4U2R8); assay: Transporter substrate, OAT1; type: in vitro ADME; settings: role: substrate
Sequence of OAT1 (Q4U2R8 whole entry): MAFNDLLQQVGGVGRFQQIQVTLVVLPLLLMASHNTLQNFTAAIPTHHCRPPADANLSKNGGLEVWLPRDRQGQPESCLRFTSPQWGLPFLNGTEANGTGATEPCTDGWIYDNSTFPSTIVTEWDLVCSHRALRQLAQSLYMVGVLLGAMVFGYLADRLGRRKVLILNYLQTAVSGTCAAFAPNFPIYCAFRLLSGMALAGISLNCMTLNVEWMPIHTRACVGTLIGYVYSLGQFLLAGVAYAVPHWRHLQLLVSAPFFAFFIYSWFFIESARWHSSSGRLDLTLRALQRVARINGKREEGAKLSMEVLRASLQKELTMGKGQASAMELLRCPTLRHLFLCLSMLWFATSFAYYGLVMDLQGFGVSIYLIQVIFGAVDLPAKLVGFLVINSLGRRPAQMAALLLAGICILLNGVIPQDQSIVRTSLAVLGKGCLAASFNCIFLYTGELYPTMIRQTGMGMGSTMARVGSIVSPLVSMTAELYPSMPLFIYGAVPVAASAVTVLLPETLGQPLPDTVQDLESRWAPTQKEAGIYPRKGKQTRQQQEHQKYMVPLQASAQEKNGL
Experimental: as §1

[5] = molecular target: T1, muscarinic m2 receptor (Homo sapiens, UniProt P08172); assay: Functional selectivity panel, muscarinic m2 receptor; type: biochemical
T1 construct: Eurofins DiscoverX, USA
T1 sequence (P08172 whole entry): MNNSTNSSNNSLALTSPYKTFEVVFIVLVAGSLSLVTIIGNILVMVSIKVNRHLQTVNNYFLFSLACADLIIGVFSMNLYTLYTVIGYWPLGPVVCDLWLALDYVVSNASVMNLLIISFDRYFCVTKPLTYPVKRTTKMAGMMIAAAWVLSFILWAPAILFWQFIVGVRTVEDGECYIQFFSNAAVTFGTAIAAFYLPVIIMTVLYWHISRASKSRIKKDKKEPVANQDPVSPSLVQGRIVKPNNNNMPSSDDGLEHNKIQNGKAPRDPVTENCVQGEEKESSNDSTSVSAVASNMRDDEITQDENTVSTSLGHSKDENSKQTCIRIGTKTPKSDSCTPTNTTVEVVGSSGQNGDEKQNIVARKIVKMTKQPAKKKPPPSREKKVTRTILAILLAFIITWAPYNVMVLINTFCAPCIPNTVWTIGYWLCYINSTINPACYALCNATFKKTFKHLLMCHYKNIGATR
Experimental: as §2

[6] = tested on: rats; assay: Rotarod assay (PSPP); type: in vivo, rat; settings: up to 300 mg/kg, male and female, 1-6 hours post-dose
Text: Animals: 50 male and 50 female Sprague Dawley rats from Envigo (Frederick, MD) were used in the study. Male animals were received at body weights between approximately 200-215 grams, and female animals between 175-205 grams. All animals were housed 3 per cage (15.55×13.63×8.39 inches) and acclimated to the vivarium for 6-9 days prior to testing. All cages contained BedO'Cob® bedding with Nylabones® for enrichment. All rats were examined, handled, and weighed prior to initiation of the study to ensure adequate health and suitability. During the study, 12/12 light/dark cycles were maintained. The room temperature was maintained between […] and 23° C. with relative humidity maintained around 50%. Chow (LabDiet 5001, LabDiet, St. Louis, MO, USA) and water were provided ad libitum except where specified below. Testing was performed during the animal's light cycle phase (between 6 am and […]). Body weights were recorded prior to baseline assessment. Latency to fall off the rotating rod was the primary measure of performance.
Training: Each trial on the rotarod was identical, a 5 second ramp from 0-17 RPM followed by a period of constant velocity at 17 RPM for up to 40 seconds, for a total trial time of […].
Animals ran three training trials on Day 1 with a 30 minutes interval between training trials. […] The outcome measured was latency to fall off the rotating rod. […]

[7] = molecular target: T2, hKv7.2/3 (Homo sapiens, UniProt O43525+O43526); assay: Kv7.2/7.3 whole-cell electrophysiology in CHO cells; type: cell-based; settings: 100 nM, −40 mV, N=4, read-out: Kv7.2/3 current activation
T2 construct: host or cells: CHO
T2 sequence (O43525 whole entry): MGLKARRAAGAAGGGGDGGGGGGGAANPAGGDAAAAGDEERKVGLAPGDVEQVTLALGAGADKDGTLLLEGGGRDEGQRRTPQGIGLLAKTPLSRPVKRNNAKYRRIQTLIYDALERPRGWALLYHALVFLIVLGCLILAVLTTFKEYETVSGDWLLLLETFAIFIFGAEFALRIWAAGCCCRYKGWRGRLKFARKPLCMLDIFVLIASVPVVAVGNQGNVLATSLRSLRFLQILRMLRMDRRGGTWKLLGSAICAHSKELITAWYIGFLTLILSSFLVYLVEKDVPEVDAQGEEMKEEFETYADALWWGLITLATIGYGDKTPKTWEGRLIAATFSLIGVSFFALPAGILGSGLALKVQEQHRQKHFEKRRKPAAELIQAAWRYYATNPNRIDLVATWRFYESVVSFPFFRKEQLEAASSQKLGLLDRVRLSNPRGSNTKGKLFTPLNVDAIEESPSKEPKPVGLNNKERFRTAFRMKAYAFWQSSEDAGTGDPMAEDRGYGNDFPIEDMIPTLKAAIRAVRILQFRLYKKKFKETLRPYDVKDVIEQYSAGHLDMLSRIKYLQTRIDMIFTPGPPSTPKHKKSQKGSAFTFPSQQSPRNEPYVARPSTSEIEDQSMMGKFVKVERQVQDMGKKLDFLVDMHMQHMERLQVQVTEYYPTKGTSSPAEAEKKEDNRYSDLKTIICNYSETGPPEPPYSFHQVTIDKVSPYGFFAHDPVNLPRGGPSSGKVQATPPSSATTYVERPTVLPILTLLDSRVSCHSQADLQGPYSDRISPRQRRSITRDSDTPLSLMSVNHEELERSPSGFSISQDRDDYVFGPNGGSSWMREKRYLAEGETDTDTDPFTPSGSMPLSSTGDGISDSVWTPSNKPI
T2 sequence (O43526 whole entry): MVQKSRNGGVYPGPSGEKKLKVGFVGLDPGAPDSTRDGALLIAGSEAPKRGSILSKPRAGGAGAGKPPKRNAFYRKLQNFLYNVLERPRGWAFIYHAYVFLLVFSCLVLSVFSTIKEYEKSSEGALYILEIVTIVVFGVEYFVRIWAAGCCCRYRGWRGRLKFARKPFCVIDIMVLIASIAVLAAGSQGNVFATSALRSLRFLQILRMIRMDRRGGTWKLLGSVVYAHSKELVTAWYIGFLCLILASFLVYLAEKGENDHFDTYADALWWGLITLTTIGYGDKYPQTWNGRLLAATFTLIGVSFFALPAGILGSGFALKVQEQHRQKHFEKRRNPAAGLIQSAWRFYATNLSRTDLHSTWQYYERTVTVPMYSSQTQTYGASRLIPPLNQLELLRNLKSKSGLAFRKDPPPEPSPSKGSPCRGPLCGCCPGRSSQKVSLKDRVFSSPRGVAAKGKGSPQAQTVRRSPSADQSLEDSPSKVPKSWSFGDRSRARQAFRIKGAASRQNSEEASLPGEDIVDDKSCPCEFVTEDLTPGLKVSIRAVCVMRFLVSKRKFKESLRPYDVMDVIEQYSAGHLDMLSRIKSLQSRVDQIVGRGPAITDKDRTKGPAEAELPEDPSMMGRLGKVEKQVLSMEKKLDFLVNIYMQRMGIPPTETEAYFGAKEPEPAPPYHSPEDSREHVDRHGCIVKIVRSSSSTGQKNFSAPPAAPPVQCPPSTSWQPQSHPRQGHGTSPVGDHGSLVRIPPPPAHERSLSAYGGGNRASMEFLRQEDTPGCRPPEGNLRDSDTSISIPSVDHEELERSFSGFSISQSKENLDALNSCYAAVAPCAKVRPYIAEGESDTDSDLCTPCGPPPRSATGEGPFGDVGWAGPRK
Text: Extracellular (Bath) solution: The solution was composed of (in mM): NaCl, 140; KCl, 4; CaCl2, 1.8; MgCl2, 1.2; Glucose, 11; HEPES, 5.5. pH was adjusted to 7.3 with NaOH. Osmolarity was adjusted to 310 mOsm with Sucrose.
Intracellular (Pipette) solution: Pipettes were pulled from borosilicate glass (Warner Instrument Corp, USA) with a resistance of 3-7 MΩ and were filled with internal solution composed of (in mM): KCl, 130; MgCl2, 1; K ATP, 5; EGTA, 5 (replaced by BAPTA in rat DRG neurons recordings); HEPES, 10. pH was adjusted to 7.3 with KOH. Osmolarity was adjusted to 290 mOsm with Sucrose.
A programmable valve-linked pressurized perfusion system (AutoMate Scientific) was used for local application of compounds nearby the cell recorded in a consistent flow rate of 2-3 ml/min. Series resistance was corrected and data were sampled at 5 kHz and low pass filtered at 2.4 kHz using MultiClamp 700B amplifier with pCLAMP11 software (Molecular Devices, USA). […]
The current obtained at −40 mV membrane potential when test compound is injected is divided by the averaged current at −40 mV, recorded before test-compound application and following its washout, to evaluate the drug/control response.

Sequence of OCT2 (O15244 whole entry): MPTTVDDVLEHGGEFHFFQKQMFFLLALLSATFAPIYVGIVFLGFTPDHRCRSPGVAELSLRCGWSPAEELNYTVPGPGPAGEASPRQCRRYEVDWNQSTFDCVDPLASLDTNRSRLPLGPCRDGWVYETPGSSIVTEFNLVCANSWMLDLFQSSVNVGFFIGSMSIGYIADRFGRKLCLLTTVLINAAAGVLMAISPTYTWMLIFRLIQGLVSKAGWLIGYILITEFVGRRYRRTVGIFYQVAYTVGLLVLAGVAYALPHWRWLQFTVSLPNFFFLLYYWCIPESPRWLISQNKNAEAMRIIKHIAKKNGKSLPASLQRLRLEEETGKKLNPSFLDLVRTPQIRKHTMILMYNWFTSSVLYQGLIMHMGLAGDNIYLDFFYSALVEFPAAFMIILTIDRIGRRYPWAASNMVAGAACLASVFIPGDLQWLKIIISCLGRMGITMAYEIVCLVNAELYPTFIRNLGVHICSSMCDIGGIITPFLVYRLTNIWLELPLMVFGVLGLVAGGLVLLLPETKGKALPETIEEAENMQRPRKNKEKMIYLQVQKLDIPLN

Question: Which results are given for O=C(Cc1nccc(-n2cc(Cl)c3cc(Cl)cc(Cl)c32)n1)NC1COCC1O (centres unmarked) [Compound 760]?
Answer: OCT2 substrate [1]: not a transporter substrate; Micronucleus formation [2]: lacks significant micronucleus formation; Micronucleus response Absolute MEC ([2]; Plate 1 with S9, 3 hours): >200 µM; CC50 ([2]; Plate 1 with S9, 3 hours, read-out: Cytotoxicity (%) Absolute EC50): > 200 µM; Micronucleus response Absolute MEC ([2]; Plate 2 without S9, 3 hours): >200 µM; Micronucleus response Absolute MEC ([2]; Plate 3 without S9, 24 hours): >200 µM; IC50 [3]: 30.4 µM; OAT1 substrate [4]: not a transporter substrate

Question: For O=C(Cc1cncc(-n2cc(Cl)c3cc(Cl)cc(Cl)c32)c1)N[C@@H]1COC[C@H]1O [Compound 661], which IC50 [5] is on record?
Answer: 5 µM

Question: And the “Rotarod performance” value [6]?
Answer: no effects on rotarod performance

Question: O=C(Cc1cc(-n2cc(Cl)c3cc(Cl)cc(Cl)c32)ccc1F)NCCO [Compound 627] was tested. Which activation at 0.1 µM [7] did it give?
Answer: 24.4 ± 10.4%
